The values below come from patent publication US8436036B2, “Diaryl ethers” (Janssen R&D Ireland, priority 2009, dated 2013).

A value given as a limit tells only on which side of the number the result lay.

The subject of one series is HCV replicon. The series is described as follows: HCV replicon assay (Huh-Luc cells, luciferase read-out). As to conditions: Hepatitis C virus, 72 h, three days incubation, luciferase activity. The class given is cell-based, HCV type Ib. An excerpt: The compounds of formula (I) were examined for inhibitory activity in the HCV replicon. This cellular assay is based on a bicistronic expression construct, as described by Lohmann et al. (1999) Science vol. 285 pp. 110-113 with modifications described by Krieger et al. (2001) Journal of Virology 75: 4614-4624, in a multi-target screening strategy.
In essence, the method was as follows:
The assay utilized the stably transfected cell line Huh-7 luc/neo (hereafter referred to as Huh-Luc). This cell line harbors an RNA encoding a bicistronic expression construct comprising the wild type NS3-NS5B regions of HCV type Ib translated from an Internal Ribosome Entry Site (IRES) from encephalomyocarditis virus (EMCV), preceded by a reporter portion (FfL-luciferase), and a selectable marker portion (neo^R, neomycine phosphotransferase). The construct is flanked by 5′ and 3′ NTRs (non-translated regions) from HCV type Ib. Continued culture of the replicon cells in the presence of G418 (neo^R) is dependent on the replication of the HCV RNA. The stably transfected replicon cells that express HCV RNA, which replicates autonomously and to high levels, encoding inter alia luciferase, were used for screening the antiviral compounds.
The replicon cells were plated in 384 well plates in the presence of the test and control compounds which were added in various concentrations. Following an incubation of three days, HCV replication was measured by assaying luciferase activity (using standard luciferase assay substrates and reagents and a Perkin Elmer ViewLux™ ultraHTS microplate imager). Replicon cells in the control cultures have high luciferase expression in the absence of any inhibitor. The inhibitory activity of the compound on luciferase activity was monitored on the Huh-Luc cells, enabling a dose-response curve for each test compound. EC50 values were then calculated, which represent the amount of compound required to decrease the level of detected luciferase activity by 50%, or more specifically, to reduce the ability of the genetically linked HCV replicon RNA to replicate.

A further series is described as follows: Cytotoxicity (Huh-7). As to conditions: human, Huh-7 cells. The class given is cell-based. An excerpt:
The in vitro antiviral activity against HCV of the compounds of formula I can be tested in a cellular HCV replicon system based on Lohmann et al. (1999) Science 285:110-113, with the further modifications described by Krieger et al. (2001) Journal of Virology 75: 4614-4624 (incorporated herein by reference), which is further exemplified in the examples section. This model, while not a complete infection model for HCV, is widely accepted as the most robust and efficient model of autonomous HCV RNA replication currently available. It will be appreciated that it is important to distinguish between compounds that specifically interfere with HCV functions from those that exert cytotoxic or cytostatic effects in the HCV replicon model, and as a consequence cause a decrease in HCV RNA or linked reporter enzyme concentration. Assays are known in the field for the evaluation of cellular cytotoxicity based for example on the activity of mitochondrial enzymes using fluorogenic redox dyes such as resazurin. Furthermore, cellular counter screens exist for the evaluation of non-selective inhibition of linked reporter gene activity, such as firefly luciferase. Appropriate cell types can be equipped by stable transfection with a luciferase reporter gene whose expression is dependent on a constitutively active gene promoter, and such cells can be used as a counter-screen to eliminate non-selective inhibitors.

Broadly, the EC50 is the concentration needed to bring the measured effect to its halfway point. For orientation: CC50 means the concentration giving 50% cytotoxicity. Low readings indicate greater toxicity to the cells, high ones lower toxicity to the cells. For `O=C(c1ccccn1)N1CCC[C@H]1c1nc(-c2cccc(Oc3ccc(-c4cnc([C@@H]5CCCN5C(=O)c5ccccn5)[nH]4)cc3)c2)c[nH]1` [Example 37], in the series on HCV replicon, the EC50 is 15400 nM. Besides, the CC50 in “Cytotoxicity (Huh-7)” is > 31.5 µM.

For `COC(=O)N[C@H](C(=O)N1CCC[C@H]1c1nc(-c2ccc(Oc3ccc(OC)c(-c4c[nH]c([C@@H]5CCCN5C(=O)[C@@H](NC(=O)OC)C(C)C)n4)c3)cc2)c[nH]1)C(C)C` [Example 45], the EC50 in the series with HCV replicon is 62.7 nM. The compound further yielded a CC50 in the series “Cytotoxicity (Huh-7)” of 1.66 µM. With `O=C(CCc1ccccc1F)N1CCC[C@H]1c1nc(-c2cccc(Oc3ccc(-c4cnc([C@@H]5CCCN5C(=O)CCc5ccccc5F)[nH]4)cc3)c2)c[nH]1` [Example 26], in the series on HCV replicon, the EC50 came to 2310 nM. Besides, in the series “Cytotoxicity (Huh-7)”, the CC50 was > 31.5 µM. In the case of `CC(C)[C@@H](C(=O)N1CCC[C@H]1c1nc(-c2cccc(Oc3ccc(-c4cnc([C@@H]5CCCN5C(=O)[C@H](C(C)C)N(C)C)[nH]4)cc3)c2)c[nH]1)N(C)C` [Example 31], the EC50 with HCV replicon came to 1160 nM. In “Cytotoxicity (Huh-7)”, this compound had a CC50 of 2.87 µM. Turning to `O=C(CCc1cccnc1)N1CCC[C@H]1c1nc(-c2cccc(Oc3ccc(-c4cnc([C@@H]5CCCN5C(=O)CCc5cccnc5)[nH]4)cc3)c2)c[nH]1` [Example 29], in the series with HCV replicon, the EC50 came out at 3.98 nM. The CC50 in the series “Cytotoxicity (Huh-7)” was > 31.5 µM. Consider `COc1c(F)cc(CC(=O)N2CCC[C@H]2c2nc(-c3cccc(Oc4ccc(-c5cnc([C@@H]6CCCN6C(=O)Cc6cc(F)c(OC)c(F)c6)[nH]5)cc4)c3)c[nH]2)cc1F` [Example 25], for which, in the series with HCV replicon, the EC50 worked out at 3390 nM. Also, the CC50 in “Cytotoxicity (Huh-7)” was > 31.5 µM. For `CN(C)[C@@H](C(=O)N1CCC[C@H]1c1ncc(-c2ccc(Oc3cccc(-c4cnc([C@@H]5CCCN5C(=O)[C@@H](c5ccccc5)N(C)C)[nH]4)c3)cc2)[nH]1)c1ccccc1` [Example 43], in that order: 0.114 nM and 0.7 µM. In the case of `CCN(CC)[C@@H](C(=O)N1CCC[C@H]1c1nc(-c2cccc(Oc3ccc(-c4cnc([C@@H]5CCCN5C(=O)[C@@H](c5ccccc5)N(CC)CC)[nH]4)cc3)c2)c[nH]1)c1ccccc1` [Example 44], the concentration for a half-maximal effect (EC50) with HCV replicon turned out to be 0.12 nM. This compound returned a CC50 in the series “Cytotoxicity (Huh-7)” of 0.78 µM. With `O=C(C(c1ccccc1)n1ccnc1)N1CCC[C@H]1c1nc(-c2cccc(Oc3ccc(-c4cnc([C@@H]5CCCN5C(=O)C(c5ccccc5)n5ccnc5)[nH]4)cc3)c2)c[nH]1` (stereo partly drawn) [Example 35], in the series on HCV replicon, the EC50 amounted to 4.72 nM. Also, the half-maximal cytotoxic concentration (CC50) in “Cytotoxicity (Huh-7)” was > 31.5 µM.

`O=C([C@@H](O)c1ccccc1)N1CCC[C@H]1c1nc(-c2cccc(Oc3ccc(-c4cnc([C@@H]5CCCN5C(=O)[C@@H](O)c5ccccc5)[nH]4)cc3)c2)c[nH]1` [Example 23]: the concentration for a half-maximal effect (EC50) with HCV replicon worked out at 60.8 nM. Moreover, it took 3.66 µM to reach half-maximal cytotoxicity in “Cytotoxicity (Huh-7)” (CC50). Take `O=C(c1ccc(F)cc1)N1CCC[C@H]1c1nc(-c2cccc(Oc3ccc(-c4cnc([C@@H]5CCCN5C(=O)c5ccc(F)cc5)[nH]4)cc3)c2)c[nH]1` [Example 34]: in the series with HCV replicon, the EC50 was determined as 4340 nM. Further, the 50% cytotoxic concentration (CC50) in “Cytotoxicity (Huh-7)” was > 31.5 µM.

Take `O=C(c1cccnc1)N1CCC[C@H]1c1nc(-c2cccc(Oc3ccc(-c4cnc([C@@H]5CCCN5C(=O)c5cccnc5)[nH]4)cc3)c2)c[nH]1` [Example 38]: the EC50 with HCV replicon was 1270 nM. In addition, the CC50 in the series “Cytotoxicity (Huh-7)” is > 31.5 µM. For `O=C(c1ccoc1)N1CCC[C@H]1c1nc(-c2cccc(Oc3ccc(-c4cnc([C@@H]5CCCN5C(=O)c5ccoc5)[nH]4)cc3)c2)c[nH]1` [Example 32], the EC50 with HCV replicon is 978 nM. In addition, the CC50 in the series “Cytotoxicity (Huh-7)” was > 31.5 µM. On to `Cc1cccc(CC(=O)N2CCC[C@H]2c2nc(-c3cccc(Oc4ccc(-c5cnc([C@@H]6CCCN6C(=O)Cc6cccc(C)c6)[nH]5)cc4)c3)c[nH]2)c1` [Example 11, 2-m-tolyl-1-((2S)-2-(5-(4-(3-(2-((S)-1-(2-m-tolylacetyl)pyrrolidin-2-yl)-1H-imidazol-4-yl)phenoxy)phenyl)-1H-imidazol-2-yl)pyrrolidin-1-yl)ethanone], for which, in the series with HCV replicon, the concentration giving a half-maximal response (EC50) came to 6180 nM. The CC50 in “Cytotoxicity (Huh-7)” is > 31.5 µM. Consider `COc1cccc(CCC(=O)N2CCC[C@H]2c2nc(-c3cccc(Oc4ccc(-c5cnc([C@@H]6CCCN6C(=O)CCc6cccc(OC)c6)[nH]5)cc4)c3)c[nH]2)c1` [Example 27], for which, in the series with HCV replicon, the EC50 was 3530 nM. The CC50 in the series “Cytotoxicity (Huh-7)” was > 31.5 µM. On the same counts, the results for `O=C(Cc1ccccc1)N1CCC[C@H]1c1ncc(-c2ccc(Oc3ccc(-c4cnc([C@@H]5CCCN5C(=O)Cc5ccccc5)[nH]4)cc3)cc2)[nH]1` [Example 49] are 1120 nM and > 31.5 µM. For the compound `Cc1nc(C(=O)N2CCC[C@H]2c2nc(-c3cccc(Oc4ccc(-c5cnc([C@@H]6CCCN6C(=O)c6nc(C)oc6C)[nH]5)cc4)c3)c[nH]2)c(C)o1` [Example 33], the EC50 with HCV replicon turned out to be 864 nM. Further, in the series “Cytotoxicity (Huh-7)”, the CC50 was > 31.5 µM. For `CN(C)C(C(=O)N1CCC[C@H]1c1nc(-c2cccc(Oc3ccc(-c4cnc([C@@H]5CCCN5C(=O)C(c5ccc(Cl)cc5)N(C)C)[nH]4)cc3)c2)c[nH]1)c1ccc(Cl)cc1` (stereo partly drawn) [Example 30], in that order: 3.62 nM and 4.6 µM. Regarding `O=C(CCS(=O)(=O)c1ccccc1)N1CCC[C@H]1c1nc(-c2cccc(Oc3ccc(-c4cnc([C@@H]5CCCN5C(=O)CCS(=O)(=O)c5ccccc5)[nH]4)cc3)c2)c[nH]1` [Example 21], the EC50 in the series on HCV replicon is 3700 nM. Further, in the series “Cytotoxicity (Huh-7)”, the CC50 was > 31.5 µM. Consider `COC(=O)NC(C(=O)N1CCC[C@H]1c1nc(-c2ccc(Oc3ccc(OC)c(-c4cnc([C@@H]5CCCN5C(=O)C(NC(=O)OC)c5ccccc5)[nH]4)c3)cc2)c[nH]1)c1ccccc1` (stereo partly drawn) [Example 46], for which, in the series with HCV replicon, the EC50 is > 980 nM. Also, in the series “Cytotoxicity (Huh-7)”, the CC50 was > 98.4 µM. As for `O=C(Cc1ccccc1)N1CCC[C@H]1c1nc(-c2cccc(Oc3ccc(-c4cnc([C@@H]5CCCN5C(=O)Cc5ccccc5)[nH]4)cc3)c2)c[nH]1` [Example 9, 2-phenyl-1-((S)-2-(5-(4-(3-(2-((S)-1-(2-phenylacetyl)pyrrolidin-2-yl)-1H-imidazol-4-yl)phenoxy)phenyl)-1H-imidazol-2-yl)pyrrolidin-1-yl)ethanone], in the series with HCV replicon, the EC50 stood at 77 nM. Moreover, the half-maximal cytotoxic concentration (CC50) in “Cytotoxicity (Huh-7)” is > 31.5 µM.

As to `COC(=O)N[C@H](C(=O)N1CCC[C@H]1c1ncc(-c2ccc(Oc3cccc(-c4cnc([C@@H]5CCCN5C(=O)[C@@H](NC(=O)OC)[C@@H](C)OC)[nH]4)c3)cc2)[nH]1)[C@@H](C)OC` [Example 39], the EC50 in the series on HCV replicon worked out at 0.0794 nM. Further, in “Cytotoxicity (Huh-7)”, the CC50 was > 31.5 µM. Turning to `O=C(Cc1cccnc1)N1CCC[C@H]1c1nc(-c2cccc(Oc3ccc(-c4cnc([C@@H]5CCCN5C(=O)Cc5cccnc5)[nH]4)cc3)c2)c[nH]1` [Example 18], the EC50 with HCV replicon was found to be 54.3 nM. Also, the half-maximal cytotoxic concentration (CC50) in the series “Cytotoxicity (Huh-7)” was > 31.5 µM. As for `O=C(Cc1ccccc1OC(F)(F)F)N1CCC[C@H]1c1nc(-c2cccc(Oc3ccc(-c4cnc([C@@H]5CCCN5C(=O)Cc5ccccc5OC(F)(F)F)[nH]4)cc3)c2)c[nH]1` [Example 24], the EC50 in the series with HCV replicon turned out to be 14.4 nM. For the same compound, in “Cytotoxicity (Huh-7)”, the CC50 was > 31.5 µM. In the case of `O=C(Cc1ccc2c(c1)OCO2)N1CCC[C@H]1c1nc(-c2cccc(Oc3ccc(-c4cnc([C@@H]5CCCN5C(=O)Cc5ccc6c(c5)OCO6)[nH]4)cc3)c2)c[nH]1` [Example 19], the half-maximal effective concentration (EC50) in the series with HCV replicon was determined as 1070 nM. Also, in the series “Cytotoxicity (Huh-7)”, the CC50 was > 31.5 µM. For `CN(C)CCC(=O)N1CCC[C@H]1c1nc(-c2cccc(Oc3ccc(-c4cnc([C@@H]5CCCN5C(=O)CCN(C)C)[nH]4)cc3)c2)c[nH]1` [Example 41], in that order: 1240 nM and > 31.5 µM. For the compound `COC(=O)N[C@H](C(=O)N1CCC[C@H]1c1nc(-c2cccc(Oc3ccc(-c4cnc([C@@H]5CCCN5C(=O)[C@@H](NC(=O)OC)C(C)C)[nH]4)cc3)c2)c[nH]1)C(C)C` [Example 42], the EC50 in the series with HCV replicon turned out to be 0.0433 nM. Also, the CC50 in the series “Cytotoxicity (Huh-7)” was 18.6 µM. For `CC(C)C[C@@H](C(=O)N1CCC[C@H]1c1nc(-c2cccc(Oc3ccc(-c4cnc([C@@H]5CCCN5C(=O)[C@H](CC(C)C)N(C)C)[nH]4)cc3)c2)c[nH]1)N(C)C` [Example 36], in that order: 3030 nM and 7.76 µM. For `COc1ccc(Oc2ccc(-c3c[nH]c([C@@H]4CCCN4C(=O)[C@@H](c4ccccc4)N(C)C)n3)cc2)cc1-c1c[nH]c([C@@H]2CCCN2C(=O)[C@@H](c2ccccc2)N(C)C)n1` [Example 47], in the series with HCV replicon, the EC50 is 0.705 nM.
